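Compound exposure: 48 hours, 5 concentrations, 96-well plates. At the TGI there is no net growth.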
Legend:
Experiment in all cases: growth of human tumour cells (NCI), 48 h
[1] = test system: UACC-62 melanoma
[2] = test system: SK-MEL-28 melanoma
[3] = test system: SNB-78 CNS
[4] = test system: M14 melanoma
[5] = test system: RXF 393 renal
[6] = test system: SR leukemia
[7] = test system: HOP-62 NSCLC
[8] = test system: IGROV1 ovarian
[9] = test system: DLD-1 colon
[10] = test system: NCI-H23 lung
[11] = test system: HL-60(TB) leukemia
[12] = test system: MOLT-4 leukemia
[13] = test system: ACHN renal
[14] = test system: UO-31 renal
[15] = test system: CAKI-1 renal
[16] = test system: K-562 leukemia
[17] = test system: 786-0 renal
[18] = test system: SN12C renal
[19] = test system: OVCAR-3 ovarian
[20] = test system: HOP-18 NSCLC
[21] = test system: LOX IMVI melanoma
[22] = test system: COLO 205 colon
[23] = test system: SK-MEL-5 melanoma
[24] = test system: EKVX NSCLC
[25] = test system: TK-10 renal
[26] = test system: SNB-19 CNS
[27] = test system: SK-OV-3 ovarian
[28] = test system: SNB-75 CNS
[29] = test system: MALME-3M melanoma
[30] = test system: HCT-15 colon
[31] = test system: OVCAR-8 ovarian
[32] = test system: HT29 colon
[33] = test system: M19-MEL melanoma
[34] = test system: HCC-2998 colon
[35] = test system: SF-268 CNS
[36] = test system: RPMI-8226 leukemia
[37] = test system: CCRF-CEM leukemia
[38] = test system: NCI-H522 lung
[39] = test system: HOP-92 NSCLC
[40] = test system: U251 CNS
[41] = test system: SF-295 CNS
[42] = test system: KM20L2 colon
[43] = test system: SW-620 colon
[44] = test system: LXFL 529 NSCLC
[45] = test system: A549 NSCLC
[46] = test system: SK-MEL-2 melanoma
[47] = test system: KM12 colon
[48] = test system: UACC-257 melanoma
[49] = test system: HCT-116 colon

O=[N+]([O-])c1ccc(N=Nc2c(O)[nH]c3ccc(Br)cc23)c([N+](=O)[O-])c1
TGI [1]: 16.2 µM | TGI [2]: 10.3 µM | TGI [3]: > 100 µM | TGI [4]: 21.2 µM | TGI [5]: 15.3 µM | TGI [6]: 10.5 µM | TGI [7]: 21 µM | TGI [8]: 45.7 µM | TGI [9]: 20.4 µM | TGI [10]: 8.28 µM | TGI [11]: 4.77 µM | TGI [12]: 26.2 µM | TGI [13]: 9.44 µM | TGI [14]: 7.14 µM | TGI [15]: 27.2 µM | TGI [16]: 15.5 µM | TGI [17]: 13.2 µM | TGI [18]: 11.4 µM | TGI [19]: 19.3 µM | TGI [20]: 4.69 µM | TGI [21]: 3.17 µM | TGI [22]: 5.92 µM | TGI [23]: 3.49 µM | TGI [24]: 33.7 µM | TGI [25]: 37.8 µM | TGI [26]: 17.1 µM | TGI [27]: 34.7 µM | TGI [28]: 11.5 µM | TGI [29]: 15 µM | TGI [30]: 11.6 µM | TGI [31]: 18.9 µM | TGI [32]: > 100 µM | TGI [33]: 9.91 µM | TGI [34]: 23.4 µM | TGI [35]: 16.6 µM | TGI [36]: 9.84 µM | TGI [37]: 9.3 µM | TGI [38]: 8.35 µM | TGI [39]: 5.1 µM | TGI [40]: 16.3 µM | TGI [41]: 14.8 µM | TGI [42]: 13.4 µM | TGI [43]: 11.7 µM | TGI [44]: 13.9 µM | TGI [45]: 20.4 µM | TGI [46]: 8.04 µM | TGI [47]: 79.6 µM | TGI [48]: 15.6 µM | TGI [49]: 3.09 µM
